Source: patent US6737383B1, “Herbicidal oxadiazolidines” (priority 1999, dated 2004)

What was measured:
velvetleaf = test: Test B pre/postemergence velvetleaf; assay type: in vivo, Abutilon theophrasti
Outline: (§1)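 Response is a visual 0-to-10 score relative to untreated plants, where 0 means no effect and 10 means complete control, taken twelve to sixteen days after application. Treatments went onto soil at planting and onto foliage of 1- to 4-leaf plants, using a surfactant-containing non-phytotoxic solvent.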

giant foxtail = test: Test B pre/postemergence giant foxtail; assay type: in vivo, Setaria faberii
Outline: as §1

wild oat = test: Test B pre/postemergence wild oat; assay type: in vivo, Avena fatua
Outline: as §1

crabgrass = test: Test B pre/postemergence crabgrass; assay type: in vivo, Digitaria sanguinalis
Outline: as §1

bedstraw = test: Test B pre/postemergence bedstraw; assay type: in vivo, Galium aparine
Outline: as §1

wheat = test: Test B pre/postemergence wheat; assay type: in vivo, Triticum aestivum
Outline: as §1

corn = test: Test B pre/postemergence corn; assay type: in vivo, Zea mays
Outline: as §1

duck salad = test: Test B flood test duck salad; assay type: in vivo, Heteranthera limosa
Outline: (§2)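 Flood test on plants grown to the 2-leaf stage; treated plants kept in greenhouse twelve to sixteen days, then visually rated against controls on a 0 (no effect) to 10 (complete control) scale.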

morningglory = test: Test B pre/postemergence morningglory; assay type: in vivo, Ipomoea hederacea
Outline: as §1

pigweed = test: Test B pre/postemergence pigweed; assay type: in vivo, Amaranthus retroflexus
Outline: as §1

surinam grass = test: Test B pre/postemergence surinam grass; assay type: in vivo, Brachiaria decumbens
Outline: as §1

rice = test: Test B flood test rice; assay type: in vivo, Oryza sativa
Outline: as §2

blackgrass = test: Test B pre/postemergence blackgrass; assay type: in vivo, Alopecurus myosuroides
Outline: as §1

purple nutsedge = test: Test B pre/postemergence purple nutsedge; assay type: in vivo, Cyperus rotundus
Outline: as §1

soybean = test: Test B pre/postemergence soybean; assay type: in vivo, Glycine max
Outline: as §1

rape = test: Test B pre/postemergence rape; assay type: in vivo, Brassica napus
Outline: as §1

[1] = Postemergence, Rate 31 g/ha, visual rating, scale 0 to 10 (0 no effect, 10 complete control)
[2] = Preemergence, Rate 31 g/ha, visual rating, scale 0 to 10 (0 no effect, 10 complete control)
[3] = Preemergence, Rate 62 g/ha, scale of 0 to 10 where 0 is no effect and 10 is complete control
[4] = Rate 16 g/ha, Postemergence, scale 0 to 10, 0 no effect, 10 complete control
[5] = Rate 16 g/ha, Preemergence, scale 0 to 10, 0 no effect, 10 complete control
[6] = Rate 62 g/ha, Postemergence, scale 0 to 10 (0 no effect, 10 complete control)
[7] = Rate 125 g/ha, Postemergence, scale of 0 to 10 where 0 is no effect and 10 is complete control
[8] = Rate 125 g/ha, Preemergence, scale of 0 to 10 where 0 is no effect and 10 is complete control
[9] = Rate 16 g/ha, head printed Pre-emergence (flood test species), scale 0 to 10, 0 no effect, 10 complete control
[10] = Rate 31 g/ha, Pre-emergence section (flood test species), scale 0 to 10
[11] = Rate 62 g/ha, headed Pre-emergence (flood test species), scale 0 to 10 (0 no effect, 10 complete control)
[12] = Rate 125 g/ha, Pre-emergence, flood test species, scale 0 to 10 where 0 is no effect and 10 is complete control
[13] = Rate 250 g/ha, Pre-emergence, flood-test species, scale 0 to 10, 0 is no effect, 10 is complete control
[14] = Rate 500 g/ha, Pre-emergence, flood test species, scale 0 to 10 (0 no effect, 10 complete control)

CCCCCn1c(=O)on(C(=O)N(c2ccc(F)cc2)C(C)C)c1=O [Compound 290]
9: Giant foxtail plant response rating (giant foxtail; [8])
8: Giant foxtail plant response rating (giant foxtail; [3])
6: Morningglory plant response rating (morningglory; [7])
4: Morningglory plant response rating (morningglory; [1]) | Morningglory plant response rating (morningglory; [6])
3: Crabgrass plant response rating (crabgrass; [8]) | Bedstraw plant response rating (bedstraw; [8]) | Morningglory plant response rating (morningglory; [4])
1: Crabgrass plant response rating (crabgrass; [3]) | Soybean plant response rating (soybean; [1]) | Soybean plant response rating (soybean; [4])
7: Redroot pigweed plant response rating (pigweed; [8])
0: Velvetleaf plant response rating (velvetleaf; [1]) | Velvetleaf plant response rating (velvetleaf; [2]) | Velvetleaf plant response rating (velvetleaf; [3]) | Velvetleaf plant response rating (velvetleaf; [4]) | Velvetleaf plant response rating (velvetleaf; [5]) | Velvetleaf plant response rating (velvetleaf; [6]) | Velvetleaf plant response rating (velvetleaf; [7]) | Velvetleaf plant response rating (velvetleaf; [8]) | Giant foxtail plant response rating (giant foxtail; [1]) | Giant foxtail plant response rating (giant foxtail; [4]) | Giant foxtail plant response rating (giant foxtail; [6]) | Giant foxtail plant response rating (giant foxtail; [7]) | Wild oats plant response rating (wild oat; [1]) | Wild oats plant response rating (wild oat; [2]) | Wild oats plant response rating (wild oat; [3]) | Wild oats plant response rating (wild oat; [4]) | Wild oats plant response rating (wild oat; [5]) | Wild oats plant response rating (wild oat; [6]) | Wild oats plant response rating (wild oat; [7]) | Crabgrass plant response rating (crabgrass; [1]) | Crabgrass plant response rating (crabgrass; [2]) | Crabgrass plant response rating (crabgrass; [4]) | Crabgrass plant response rating (crabgrass; [5]) | Crabgrass plant response rating (crabgrass; [6]) | Crabgrass plant response rating (crabgrass; [7]) | Bedstraw plant response rating (bedstraw; [1]) | Bedstraw plant response rating (bedstraw; [2]) | Bedstraw plant response rating (bedstraw; [3]) | Bedstraw plant response rating (bedstraw; [4]) | Bedstraw plant response rating (bedstraw; [5]) | Bedstraw plant response rating (bedstraw; [6]) | Bedstraw plant response rating (bedstraw; [7]) | Wheat plant response rating (wheat; [1]) | Wheat plant response rating (wheat; [2]) | Wheat plant response rating (wheat; [3]) | Wheat plant response rating (wheat; [4]) | Wheat plant response rating (wheat; [5]) | Wheat plant response rating (wheat; [6]) | Wheat plant response rating (wheat; [7]) | Wheat plant response rating (wheat; [8]) | Corn plant response rating (corn; [1]) | Corn plant response rating (corn; [2]) | Corn plant response rating (corn; [3]) | Corn plant response rating (corn; [4]) | Corn plant response rating (corn; [5]) | Corn plant response rating (corn; [6]) | Corn plant response rating (corn; [7]) | Corn plant response rating (corn; [8]) | Ducksalad plant response rating (duck salad; [9]) | Ducksalad plant response rating (duck salad; [10]) | Ducksalad plant response rating (duck salad; [11]) | Ducksalad plant response rating (duck salad; [12]) | Ducksalad plant response rating (duck salad; [13]) | Ducksalad plant response rating (duck salad; [14]) | Morningglory plant response rating (morningglory; [2]) | Morningglory plant response rating (morningglory; [3]) | Morningglory plant response rating (morningglory; [5]) | Morningglory plant response rating (morningglory; [8]) | Redroot pigweed plant response rating (pigweed; [1]) | Redroot pigweed plant response rating (pigweed; [2]) | Redroot pigweed plant response rating (pigweed; [4]) | Redroot pigweed plant response rating (pigweed; [5]) | Redroot pigweed plant response rating (pigweed; [6]) | Redroot pigweed plant response rating (pigweed; [7]) | B. signalgrass plant response rating (surinam grass; [1]) | B. signalgrass plant response rating (surinam grass; [2]) | B. signalgrass plant response rating (surinam grass; [3]) | B. signalgrass plant response rating (surinam grass; [4]) | B. signalgrass plant response rating (surinam grass; [5]) | B. signalgrass plant response rating (surinam grass; [6]) | B. signalgrass plant response rating (surinam grass; [7]) | B. signalgrass plant response rating (surinam grass; [8]) | Rice plant response rating (rice; [9]) | Rice plant response rating (rice; [10]) | Rice plant response rating (rice; [11]) | Rice plant response rating (rice; [12]) | Rice plant response rating (rice; [13]) | Rice plant response rating (rice; [14]) | Blackgrass plant response rating (blackgrass; [1]) | Blackgrass plant response rating (blackgrass; [2]) | Blackgrass plant response rating (blackgrass; [4]) | Blackgrass plant response rating (blackgrass; [5]) | Blackgrass plant response rating (blackgrass; [6]) | Blackgrass plant response rating (blackgrass; [7]) | Nutsedge plant response rating (purple nutsedge; [1]) | Nutsedge plant response rating (purple nutsedge; [2]) | Nutsedge plant response rating (purple nutsedge; [3]) | Nutsedge plant response rating (purple nutsedge; [4]) | Nutsedge plant response rating (purple nutsedge; [5]) | Nutsedge plant response rating (purple nutsedge; [6]) | Nutsedge plant response rating (purple nutsedge; [7]) | Soybean plant response rating (soybean; [2]) | Soybean plant response rating (soybean; [3]) | Soybean plant response rating (soybean; [5]) | Soybean plant response rating (soybean; [8]) | Rape plant response rating (rape; [1]) | Rape plant response rating (rape; [2]) | Rape plant response rating (rape; [3]) | Rape plant response rating (rape; [4]) | Rape plant response rating (rape; [5]) | Rape plant response rating (rape; [6]) | Rape plant response rating (rape; [7]) | Rape plant response rating (rape; [8])
2: Giant foxtail plant response rating (giant foxtail; [2]) | Giant foxtail plant response rating (giant foxtail; [5]) | Redroot pigweed plant response rating (pigweed; [3]) | Blackgrass plant response rating (blackgrass; [3]) | Blackgrass plant response rating (blackgrass; [8]) | Soybean plant response rating (soybean; [6]) | Soybean plant response rating (soybean; [7])
